In one test the target is T1, MTOR_h (Homo sapiens, UniProt P42345).
T1 construct: purchased DiscoveRx Corporation
The test is described as follows: Enzyme binding assay (KINOMEscan). Particulars: DiscoveRx. The method, then: (§1) Enzyme Binding Assays (KINOMEscan®)
(§2) Kinase enzyme binding affinities of compounds disclosed herein were determined using the KINOMEscan technology performed by DiscoveRx Corporation, San Diego, Calif., USA (www.kinomescan.com). Table A reports the obtained Kd values (nM), with the Kd being the inhibitor binding constant: […]

Another test has as its target T2, PIK3Cα_h (Homo sapiens, UniProt P42336).
T2 construct: purchased DiscoveRx Corporation
Briefly: Enzyme binding assay (KINOMEscan). The conditions noted are these: DiscoveRx. The method, then: as §1, §2

The target of a further test is T3, PIK3Cβ_h (Homo sapiens, UniProt P42338).
T3 construct: purchased DiscoveRx Corporation
The test is described as follows: Enzyme binding assay (KINOMEscan). Particulars: DiscoveRx. The procedure:
as §1, §2

The next test addresses T4, PIK3Cγ_h (Homo sapiens, UniProt P48736).
T4 construct: purchased DiscoveRx Corporation
Briefly: Enzyme binding assay (KINOMEscan). Particulars: DiscoveRx. The method, then:
as §1, §2

The target of a further test is T5, PIK3Cδ_h (Homo sapiens, UniProt O00329).
T5 construct: purchased DiscoveRx Corporation
T5 sequence (O00329 1-1044): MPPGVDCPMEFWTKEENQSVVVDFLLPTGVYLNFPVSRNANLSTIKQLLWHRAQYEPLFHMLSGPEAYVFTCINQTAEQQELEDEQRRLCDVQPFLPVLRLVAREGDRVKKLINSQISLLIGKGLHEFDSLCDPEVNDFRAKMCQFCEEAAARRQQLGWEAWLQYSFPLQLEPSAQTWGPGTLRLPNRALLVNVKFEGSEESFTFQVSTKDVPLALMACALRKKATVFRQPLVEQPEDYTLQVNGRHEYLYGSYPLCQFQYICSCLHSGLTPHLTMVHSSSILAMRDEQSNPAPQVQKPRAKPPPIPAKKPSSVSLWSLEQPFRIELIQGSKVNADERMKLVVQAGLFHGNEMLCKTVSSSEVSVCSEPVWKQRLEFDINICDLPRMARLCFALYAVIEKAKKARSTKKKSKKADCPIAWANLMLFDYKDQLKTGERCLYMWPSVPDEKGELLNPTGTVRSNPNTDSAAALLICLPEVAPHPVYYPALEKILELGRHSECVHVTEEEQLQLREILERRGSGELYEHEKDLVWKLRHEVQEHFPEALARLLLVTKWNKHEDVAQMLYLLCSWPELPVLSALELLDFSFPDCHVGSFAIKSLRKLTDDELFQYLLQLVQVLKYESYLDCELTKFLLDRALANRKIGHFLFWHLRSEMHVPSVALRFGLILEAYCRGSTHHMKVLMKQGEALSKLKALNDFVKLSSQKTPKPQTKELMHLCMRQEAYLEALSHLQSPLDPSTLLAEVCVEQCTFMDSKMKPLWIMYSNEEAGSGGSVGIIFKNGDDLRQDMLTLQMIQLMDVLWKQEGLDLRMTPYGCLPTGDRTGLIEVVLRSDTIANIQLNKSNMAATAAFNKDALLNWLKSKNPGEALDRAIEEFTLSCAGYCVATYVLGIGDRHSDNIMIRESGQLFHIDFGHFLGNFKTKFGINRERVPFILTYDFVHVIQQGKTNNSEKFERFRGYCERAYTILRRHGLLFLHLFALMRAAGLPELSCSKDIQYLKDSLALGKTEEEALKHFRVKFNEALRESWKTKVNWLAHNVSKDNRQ
The test is described as follows: Enzyme binding assay (KINOMEscan). Particulars: DiscoveRx. The method, then: as §1, §2

Test [1] relates to Akt phosphorylated at Ser473 in PC-3 cells. The test is described as follows: Cellular assay: phosphorylation of Akt (Ser473) in PC-3 cells, MSD ELISA. Type of test: cell-based. The conditions noted are these: Homo sapiens, PC-3, 1 h, 60 min compound incubation, read-out: IC50 pAkt_S473. The method, then: (§3) Cellular activity of PI3Kβ inhibitors was determined by quantifying the phosphorylation of Akt in PC-3 cells. Akt phosphorylated at Ser473 and Thr308 were measured using an enzyme-linked immunosorbent assay (ELISA; Meso Scale Discovery (MSD), Gaithersburg, Md.) and specific primary antibodies from MSD.
(§4) On day 1, PC3 cells (ATCC #[…]) were seeded into PerkinElmer MW96 plates at 25.000 cells per well, in 75 μl complete culture medium (DMEM high glucose, AQmedia™, D0819, Sigma-Aldrich) containing 10% heat inactivated FCS and incubated at 37° C., […] during 24 hours. On day 2, compound or DMSO (0.3%) was added and cells were further incubated for 60 min at 37° C., 5% CO2 in a total volume of 100 μl of medium.
(§5) The phosphoprotein assay was executed according to vendor instructions in the Phospho-Akt (Ser473) Assay Whole Cell Lysate Kit (MSD #K15100D-3) and the Phospho-Akt (Thr308) Assay Whole Cell Lysate Kit (MSD #K151DYD-3) using the lysis, blocking and wash buffer provided.
(§6) Briefly, at the end of the cell treatment period, media were removed by aspiration and adherent cells were lysed in 50 μl ice-cold lysis buffer. MSD plates are supplied pre-coated with capture antibodies for Phospho-Akt (Ser473 and Thr308). After blocking, lysates from tissue culture plates were added and plates were washed. Then, a solution containing the detection antibody (anti-total Akt conjugated with an electrochemiluminescent compound-MSD Sulfo-tag label) was added. The signals were detected using an MSD SECTOR Imager 6000 and are proportional to the phospho-Akt titres.
(§7) Data were processed. The percentage of inhibition was plotted against the log concentration of test compounds, and the sigmoidal log concentration-effect curve of best fit was calculated by nonlinear regression analysis. From these concentration-response curves, the IC50 values were calculated. Five concentrations were used for curve fitting.
(An ELISA detects its analyte on a solid surface through an enzyme-linked reagent.)

The subject of test [2] is Akt phosphorylated at Thr308 in PC-3 cells. Briefly: Cellular assay: phosphorylation of Akt (Thr308) in PC-3 cells, MSD ELISA. Type of test: cell-based. The conditions noted are these: Homo sapiens, PC-3, 1 h, 60 min compound incubation, read-out: IC50 pAkt_Thr308. The procedure:
as §3, §4, §5, §6, §7

The pKd is −log10 of the Kd, conventionally taken in molar units. The term pIC50 denotes the negative decadic logarithm of the IC50, by convention in mol/L.

pIC50, pKd: −log10 of the molar value.

T2 sequence (P42336 whole entry): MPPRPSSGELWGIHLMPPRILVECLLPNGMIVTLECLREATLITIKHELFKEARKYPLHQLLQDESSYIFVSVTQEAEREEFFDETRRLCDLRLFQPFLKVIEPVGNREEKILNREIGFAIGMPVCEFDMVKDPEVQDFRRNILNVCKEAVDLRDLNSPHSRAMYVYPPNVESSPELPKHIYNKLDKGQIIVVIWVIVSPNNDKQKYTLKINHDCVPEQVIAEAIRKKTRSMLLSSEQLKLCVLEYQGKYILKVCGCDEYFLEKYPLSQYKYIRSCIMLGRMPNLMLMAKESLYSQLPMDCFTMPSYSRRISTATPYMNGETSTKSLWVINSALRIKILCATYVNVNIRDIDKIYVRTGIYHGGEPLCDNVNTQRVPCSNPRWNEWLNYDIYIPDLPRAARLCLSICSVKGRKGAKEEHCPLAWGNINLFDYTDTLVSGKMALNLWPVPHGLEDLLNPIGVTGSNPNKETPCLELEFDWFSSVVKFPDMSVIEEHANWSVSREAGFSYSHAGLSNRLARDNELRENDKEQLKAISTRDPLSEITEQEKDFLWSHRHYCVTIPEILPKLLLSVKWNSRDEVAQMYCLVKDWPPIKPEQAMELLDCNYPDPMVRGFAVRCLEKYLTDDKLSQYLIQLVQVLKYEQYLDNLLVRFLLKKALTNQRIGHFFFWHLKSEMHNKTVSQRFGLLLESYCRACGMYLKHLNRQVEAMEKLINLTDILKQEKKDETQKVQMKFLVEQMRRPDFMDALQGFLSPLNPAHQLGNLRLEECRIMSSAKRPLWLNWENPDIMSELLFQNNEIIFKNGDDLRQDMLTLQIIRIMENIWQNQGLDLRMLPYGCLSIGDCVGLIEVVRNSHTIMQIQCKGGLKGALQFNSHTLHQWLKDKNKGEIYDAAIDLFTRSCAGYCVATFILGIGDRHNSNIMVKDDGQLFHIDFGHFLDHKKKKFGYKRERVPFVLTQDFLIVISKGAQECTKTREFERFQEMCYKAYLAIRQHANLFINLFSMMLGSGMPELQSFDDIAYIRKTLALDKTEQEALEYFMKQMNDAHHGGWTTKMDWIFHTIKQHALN
T3 sequence (P42338 whole entry): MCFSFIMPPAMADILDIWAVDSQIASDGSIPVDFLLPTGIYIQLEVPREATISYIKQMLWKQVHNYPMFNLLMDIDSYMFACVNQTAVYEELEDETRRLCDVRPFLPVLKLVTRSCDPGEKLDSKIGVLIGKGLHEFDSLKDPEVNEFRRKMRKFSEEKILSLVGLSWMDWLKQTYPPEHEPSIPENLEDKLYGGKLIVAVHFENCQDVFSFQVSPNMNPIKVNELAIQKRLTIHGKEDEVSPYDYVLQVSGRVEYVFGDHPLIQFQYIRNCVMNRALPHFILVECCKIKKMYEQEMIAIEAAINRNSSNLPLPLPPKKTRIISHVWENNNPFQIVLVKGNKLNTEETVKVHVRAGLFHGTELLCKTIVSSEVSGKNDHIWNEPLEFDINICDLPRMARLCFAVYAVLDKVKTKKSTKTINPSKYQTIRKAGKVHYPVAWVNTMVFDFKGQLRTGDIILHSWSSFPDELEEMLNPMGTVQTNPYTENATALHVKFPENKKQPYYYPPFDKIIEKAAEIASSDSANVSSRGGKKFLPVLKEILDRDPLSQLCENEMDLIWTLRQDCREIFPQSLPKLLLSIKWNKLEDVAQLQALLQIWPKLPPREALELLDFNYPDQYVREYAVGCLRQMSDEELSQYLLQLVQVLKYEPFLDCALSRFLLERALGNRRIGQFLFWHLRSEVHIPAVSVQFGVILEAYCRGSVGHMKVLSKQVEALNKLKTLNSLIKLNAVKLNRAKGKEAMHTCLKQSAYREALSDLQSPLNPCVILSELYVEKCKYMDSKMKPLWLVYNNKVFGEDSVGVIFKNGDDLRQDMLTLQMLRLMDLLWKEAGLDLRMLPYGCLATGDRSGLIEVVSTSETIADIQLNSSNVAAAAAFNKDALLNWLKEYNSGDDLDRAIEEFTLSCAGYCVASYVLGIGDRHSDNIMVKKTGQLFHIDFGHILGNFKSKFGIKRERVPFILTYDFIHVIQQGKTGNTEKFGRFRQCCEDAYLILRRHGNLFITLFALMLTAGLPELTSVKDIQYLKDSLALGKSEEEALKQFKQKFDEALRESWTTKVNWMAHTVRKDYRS
T4 sequence (P48736 whole entry): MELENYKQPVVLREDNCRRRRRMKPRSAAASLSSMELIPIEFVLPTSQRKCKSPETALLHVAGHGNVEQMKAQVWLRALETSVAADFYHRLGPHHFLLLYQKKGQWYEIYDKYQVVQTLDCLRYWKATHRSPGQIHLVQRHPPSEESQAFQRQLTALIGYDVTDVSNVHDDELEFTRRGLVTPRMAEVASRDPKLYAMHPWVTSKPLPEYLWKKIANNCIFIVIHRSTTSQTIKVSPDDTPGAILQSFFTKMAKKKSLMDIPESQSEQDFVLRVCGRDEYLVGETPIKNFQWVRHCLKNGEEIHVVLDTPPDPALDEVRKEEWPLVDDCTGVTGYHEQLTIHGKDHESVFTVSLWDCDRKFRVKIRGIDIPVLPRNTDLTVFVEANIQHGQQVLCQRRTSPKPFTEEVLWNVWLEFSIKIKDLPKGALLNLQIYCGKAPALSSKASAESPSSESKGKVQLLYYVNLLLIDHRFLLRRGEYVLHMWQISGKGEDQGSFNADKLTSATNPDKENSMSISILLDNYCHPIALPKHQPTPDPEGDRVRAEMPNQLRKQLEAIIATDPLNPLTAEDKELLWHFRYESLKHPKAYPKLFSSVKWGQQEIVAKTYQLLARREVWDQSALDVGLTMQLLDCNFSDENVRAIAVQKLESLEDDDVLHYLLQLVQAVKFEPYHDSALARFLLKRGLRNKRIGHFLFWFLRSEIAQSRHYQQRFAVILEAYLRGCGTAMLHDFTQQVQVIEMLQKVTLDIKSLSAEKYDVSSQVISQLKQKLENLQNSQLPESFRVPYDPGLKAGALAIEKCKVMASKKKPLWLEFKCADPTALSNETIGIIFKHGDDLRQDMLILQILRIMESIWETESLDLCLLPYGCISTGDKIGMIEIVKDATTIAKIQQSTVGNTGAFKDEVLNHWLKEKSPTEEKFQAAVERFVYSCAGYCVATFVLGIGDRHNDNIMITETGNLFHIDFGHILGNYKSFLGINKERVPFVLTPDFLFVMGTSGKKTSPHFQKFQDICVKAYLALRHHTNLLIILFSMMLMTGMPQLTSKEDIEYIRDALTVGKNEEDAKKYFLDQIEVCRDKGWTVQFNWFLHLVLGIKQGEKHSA

Consider `Cc1c(Cc2c(CO)nc3c(-c4ccn[nH]4)cc(N4CCOCC4)cn23)cccc1C(F)(F)F` [Compound 38], for which the pKd was 5.64 on MTOR_h; 5.53 on PIK3Cα_h; 7.15 on PIK3Cβ_h; 5.36 on PIK3Cγ_h; 5.69 on PIK3Cδ_h. The pIC50 in test [1] and in test [2] was less than 6.29 each time.

Regarding `CC(=O)N(CCO)Cc1nc2ccc(N3CCOCC3)cn2c1Cc1cccc(C(F)(F)F)c1C` [Compound 37], the pKd is 4.62 on MTOR_h; 4.99 at PIK3Cα_h; 7.70 on PIK3Cβ_h; less than 4.52 at PIK3Cγ_h; 5.84 on PIK3Cδ_h. Moreover, the pIC50 in test [1] is 6.55; in test [2] it was approximately 6.55.

In the case of `Cc1nc2c(CO)nc(C3=CCOCC3)cn2c1Cc1cccc(C(F)(F)F)c1C` [Compound 4], the pKd is less than 4.52 at MTOR_h; 4.92 on PIK3Cα_h; 8.12 on PIK3Cβ_h; 4.83 on PIK3Cγ_h; 5.52 on PIK3Cδ_h. Moreover, the pIC50 in test [1] is less than 6.29; in test [2], 6.32.

`Cc1c(Cc2c(CN3CCCC4(CNC4)C3)nc3ccc(N4CCOCC4)cn23)cccc1C(F)(F)F` [Compound 31]: the pKd at MTOR_h was less than 4.52; on PIK3Cα_h, less than 4.52; at PIK3Cβ_h, 7.70; on PIK3Cγ_h, less than 4.52; on PIK3Cδ_h, 5.87. Besides, the pIC50 in test [1] is 6.32; in test [2], less than 6.29.

Regarding `Cc1c(Cc2c(CNCCO)nc3ccc(N4CCOCC4)cn23)cccc1C(F)(F)F` [Compound 34], the pKd on MTOR_h was 4.63; at PIK3Cα_h, 4.77; at PIK3Cβ_h it was 8.05; at PIK3Cγ_h, less than 4.52; on PIK3Cδ_h, 6.13. Moreover, the pIC50 is 6.96 in test [1] and 7.15 in test [2].

Consider `Cc1c(Cc2c(CC(=O)N3C[C@@H](C)N[C@@H](C)C3)nc3cnc(N4CCOCC4)cn23)cccc1C(F)(F)F` [Compound 14], for which the pKd is less than 4.52 on MTOR_h; less than 4.52 on PIK3Cα_h; 6.81 at PIK3Cβ_h; less than 4.52 on PIK3Cγ_h; 4.82 at PIK3Cδ_h. Further, the pIC50 in test [1] and in test [2] was less than 6.29 in each case.

Take `Cc1c(Cc2c(CN(C)CCO)nc3ccc(N4CCOCC4)cn23)cccc1C(F)(F)F` [Compound 36]: the pKd was less than 4.52 at MTOR_h; less than 4.52 at PIK3Cα_h; 7.66 at PIK3Cβ_h; less than 4.52 at PIK3Cγ_h; 5.67 on PIK3Cδ_h. For the same compound, the pIC50 is approximately 6.65 in test [1] and approximately 6.88 in test [2].

For `Cc1c(Cc2c(CN3CCC4(CCS(=O)(=O)C4)C3)nc3ncc(N4CCOCC4)cn23)cccc1C(F)(F)F` (centres unmarked) [Compound 24], the pKd at MTOR_h is less than 4.52; on PIK3Cα_h it was 5.59; on PIK3Cβ_h, 7.96; on PIK3Cγ_h, less than 4.52; on PIK3Cδ_h, 5.85. The pIC50 in test [1] is 6.54; in test [2], approximately 6.76.

For the compound `Cc1c(Cc2c(CN3CCC4(CCCS4(=O)=O)C3)nc3ncc(N4CCOCC4)cn23)cccc1C(F)(F)F` (centres unmarked) [Compound 26], the negative-log Kd (pKd) at MTOR_h is less than 4.52; on PIK3Cα_h, 5.38; at PIK3Cβ_h it was 8.17; on PIK3Cγ_h, less than 4.52; at PIK3Cδ_h it was 6.16. Also, the pIC50 in test [1] was 6.32; in test [2], 7.15.

`Cc1c(Cc2c(CN3CC4(CCN4)C3)nc3ccc(N4CCOCC4)cn23)cccc1C(F)(F)F` [Compound 32]: the pKd was 4.56 on MTOR_h; 5.14 on PIK3Cα_h; 8.66 at PIK3Cβ_h; 5.07 on PIK3Cγ_h; 6.49 on PIK3Cδ_h. Further, the values for the pIC50 in test [1] and in test [2] were 6.72 and approximately 6.75, respectively.

Take `Cc1c(Cc2c(CN3C[C@@H](C)N[C@@H](C)C3)nc3cnc(N4CCOCC4)cn23)cccc1C(F)(F)F` [Compound 11]: the negative logarithm of the Kd (pKd) is less than 4.52 at MTOR_h; less than 4.52 at PIK3Cα_h; 6.92 at PIK3Cβ_h; less than 4.52 on PIK3Cγ_h; 5.09 at PIK3Cδ_h. In addition, the pIC50 in test [1] and in test [2] was less than 6.29 throughout.
